Data taken from US5059597A, “7-(4-oxa or 4-thia-2,7-diazabicyclo[3.3.0]oct-2-en-3-yl)-3-quinolone-and-naphthyrido ne-carboxylic acid derivatives as antibacterial agents and feed additives” (Bayer Aktiengesellschaft, priority 1988, dated 1991).
Values after ≈ are worked out from the molar mass of the structure shown. Where two headings read alike, the source gives them in different places.

How the values were obtained:
Proleus mirabilis 8223 = experiment: MIC, agar dilution test (Denley multipoint inoculator; Iso-sensitest agar); assay type: cell-based; settings: 37° C., about 20 hours, about 10^4 colony-forming particles
Procedure: (§1) The minimum inhibitory concentrations (MIC) were determined by the series dilution method on Iso-Sensitest agar (Oxoid). For each test substance, a series of agar plates which contained concentrations of the active compound which decreased by a dilution factor of two each time was prepared. The agar plates were inoculated with a multipoint inoculator (Denley). Overnight cultures of the pathogens which had first been diluted so that each inoculation point contained about 10^4 colony-forming particles were used for the inoculation. The inoculated agar plates were incubated at 37° C. and the germ growth was read off after about 20 hours. The MIC value (μg/ml) indicates the lowest active compound concentration at which no germ growth was to be detected with the naked eye.
(§2) The MIC values of some of the compounds according to the invention are shown in comparison with ciprofloxacin in the following table.
(§3) MIC values (mg/l) determined by the agar dilution
(§4) test (Denley multipoint inoculator; Iso-sensitest agar)

[1] = test system: Providencia stuartei 12052; experiment: as above; assay type: cell-based; settings: 37° C., about 20 hours, about 10^4 colony-forming particles
Procedure: as §1, §2, §3, §4

[2] = test system: Enterococcus faecalis 27101; experiment: as above; assay type: cell-based; settings: read-out: MIC values
Procedure: as §1, §2, §3, §4

[3] = test system: Enterococcus faecalis 9790; experiment: as above; assay type: cell-based; settings: read-out: MIC values
Procedure: as §1, §2, §3, §4

[4] = test system: Staphylococcus aureus 133; experiment: as above; assay type: cell-based; settings: read-out: MIC values
Procedure: as §1, §2, §3, §4

Escherichia coli Neumann = experiment: as above; assay type: cell-based; settings: 37° C., about 20 hours, about 10^4 colony-forming particles
Procedure: as §1, §2, §3, §4

Proleus vulgaris 1017 = experiment: as above; assay type: cell-based; settings: 37° C., about 20 hours, about 10^4 colony-forming particles
Procedure: as §1, §2, §3, §4

Morganella morganii 932 = experiment: as above; assay type: cell-based; settings: 37° C., about 20 hours, about 10^4 colony-forming particles
Procedure: as §1, §2, §3, §4

[5] = test system: Staphylococcus aureus FK 422; experiment: as above; assay type: cell-based; settings: read-out: MIC values
Procedure: as §1, §2, §3, §4

[6] = test system: Staphylococcus aureus 1756; experiment: as above; assay type: cell-based; settings: read-out: MIC values
Procedure: as §1, §2, §3, §4

Solubility in water = assay type: physicochemical; settings: mesylate salt
[7] = Enterococcus faecalis 27101, 37° C., about 20 hours, about 10^4 colony-forming particles
[8] = Enterococcus faecalis 9790, 37° C., about 20 hours, about 10^4 colony-forming particles
[9] = Staphylococcus aureus 133, 37° C., about 20 hours, about 10^4 colony-forming particles
[10] = FK422, Staphylococcus aureus FK 422, 37° C., about 20 hours, about 10^4 colony-forming particles
[11] = Staphylococcus aureus 1756, 37° C., about 20 hours, about 10^4 colony-forming particles

Compound	MIC (Proleus mirabilis 8223) [µg/mL]	MIC [1] [µg/mL]	MIC [2, 7] [µg/mL]	MIC [3, 8] [µg/mL]	MIC [4, 9] [µg/mL]	MIC (Escherichia coli Neumann) [µg/mL]	MIC (Proleus vulgaris 1017) [µg/mL]	MIC (Morganella morganii 932) [µg/mL]	MIC [5, 10] [µg/mL]	MIC [6, 11] [µg/mL]	solubility in water (Solubility in water)	MIC ([2]; Enterococcus faecalis, 27101, 20 h) [µg/mL]	MIC ([3]; Enterococcus faecalis, 9790, 20 h) [µg/mL]	MIC ([4]; Staphylococcus aureus, 133, 20 h) [µg/mL]	MIC ([5]; Staphylococcus aureus, FK422, 20 h) [µg/mL]	MIC ([6]; Staphylococcus aureus, 1756, 20 h) [µg/mL]
CO[C@H]1CN(c2c(F)cc3c(=O)c(C(=O)O)cn(C4CC4)c3c2Cl)C[C@H]1N.O=C(O)C(F)(F)F (relative stereo) [Example 4, 7-(cis-3-amino-4-methoxy-1-pyrrolidinyl)-8-chloro-1-cyclopropyl-6-fluoro-1,4-dihydro-4-oxo-3-quinolinecarboxylic acid trifluoroacetate]	0.5	0.5	0.06	0.06	≤ 0.015	≤ 0.015	≤ 0.015	≤ 0.015	≤ 0.016	≤ 0.015	–	–	–	–	–	–
O=C(O)c1cn(C2CC2)c2cc(N3CCNCC3)c(F)cc2c1=O [Ciprofloxacin, ciprofloxacin, reference compound]	1 (≈ 3.02 µM)	4 (≈ 12.1 µM)	–	–	–	≤ 0.015	≤ 0.015	≤ 0.015	–	–	–	0.05 (≈ 0.151 µM)	0.25 (≈ 0.754 µM)	0.25 (≈ 0.754 µM)	0.25 (≈ 0.754 µM)	0.25 (≈ 0.754 µM)
O=C(O)c1cn(C2CC2)c2c(F)c(N3CC4NCCOC4C3)c(F)cc2c1=O (centres unmarked) [Example 8, 1-cyclopropyl-6,8-difluoro-1,4-dihydro-7-(2-oxa-5,8-diazabicyclo[4.3.0]non-8-yl)-4-oxo-3-quinolinecarboxylic acid]	2 (≈ 5.11 µM)	4 (≈ 10.2 µM)	0.125 (≈ 0.319 µM)	0.125 (≈ 0.319 µM)	0.03 (≈ 0.0767 µM)	≤ 0.015	0.06 (≈ 0.153 µM)	0.06 (≈ 0.153 µM)	0.03 (≈ 0.0767 µM)	0.03 (≈ 0.0767 µM)	–	–	–	–	–	–
CN1CCOC2CN(c3c(F)cc4c(=O)c(C(=O)O)cn(C5CC5)c4c3F)CC21 (centres unmarked) [Example 9, 1-cyclopropyl-6,8-difluoro-1,4-dihydro-7-(5-methyl-2-oxa-5,8-diazabicyclo[4.3.0]non-8-yl)-4-oxo-3-quinolinecarboxylic acid]	8 (≈ 19.7 µM)	32 (≈ 78.9 µM)	0.25 (≈ 0.617 µM)	0.25 (≈ 0.617 µM)	0.06 (≈ 0.148 µM)	0.25 (≈ 0.617 µM)	0.5 (≈ 1.23 µM)	0.5 (≈ 1.23 µM)	0.06 (≈ 0.148 µM)	0.06 (≈ 0.148 µM)	–	–	–	–	–	–
CN1CCOC2CN(c3cc4c(cc3F)c(=O)c(C(=O)O)cn4C3CC3)CC21 (centres unmarked) [Example 10, 1-cyclopropyl-6-fluoro-1,4-dihydro-7-(5-methyl-2-oxa-5,8-diazabicyclo[4.3.0]non-8-yl)-4-oxo-3-quinolinecarboxylic acid]	16 (≈ 41.3 µM)	64 (≈ 165 µM)	2 (≈ 5.16 µM)	2 (≈ 5.16 µM)	0.125 (≈ 0.323 µM)	0.125 (≈ 0.323 µM)	1 (≈ 2.58 µM)	0.5 (≈ 1.29 µM)	0.125 (≈ 0.323 µM)	0.125 (≈ 0.323 µM)	–	–	–	–	–	–
CN1CCCC2CN(c3c(F)cc4c(=O)c(C(=O)O)cn(C5CC5)c4c3F)CC21 (centres unmarked) [Example 13, 1-cyclopropyl-6,8-difluoro-1,4-dihydro-7-(2-methyl-2,8-diazabicyclo[4.3.0]non-8-yl)-4-oxo-3-quinolinecarboxylic acid]	1 (≈ 2.48 µM)	2 (≈ 4.96 µM)	0.125 (≈ 0.31 µM)	0.25 (≈ 0.62 µM)	0.06 (≈ 0.149 µM)	0.06 (≈ 0.149 µM)	0.03 (≈ 0.0744 µM)	0.125 (≈ 0.31 µM)	0.06 (≈ 0.149 µM)	0.06 (≈ 0.149 µM)	–	–	–	–	–	–
O=C(O)c1cn(C2CC2)c2c(F)c(N3CC4CCCNC4C3)c(F)cc2c1=O (centres unmarked) [Example 15, 1-cyclopropyl-7-(2,8-diazabicyclo[4.3.0]non-8-yl)-6,8-difluoro-1,4-dihydro-4-oxo-3-quinolinecarboxylic acid]	0.5 (≈ 1.28 µM)	1 (≈ 2.57 µM)	0.03 (≈ 0.077 µM)	–	0.03 (≈ 0.077 µM)	≤ 0.015	0.03 (≈ 0.077 µM)	0.03 (≈ 0.077 µM)	0.03 (≈ 0.077 µM)	0.03 (≈ 0.077 µM)	–	–	–	–	–	–
CN1CCC2CN(c3c(F)cc4c(=O)c(C(=O)O)cn(C5CC5)c4c3F)CC21 (centres unmarked) [Example 18, 1-cyclopropyl-6,8-difluoro-1,4-dihydro-7-(2-methyl-2,7-diazabicyclo[3.3.0]oct-7-yl)-4-oxo-3-quinolinecarboxylic acid]	1 (≈ 2.57 µM)	4 (≈ 10.3 µM)	0.25 (≈ 0.642 µM)	0.5 (≈ 1.28 µM)	0.125 (≈ 0.321 µM)	0.03 (≈ 0.077 µM)	0.06 (≈ 0.154 µM)	0.06 (≈ 0.154 µM)	0.125 (≈ 0.321 µM)	0.125 (≈ 0.321 µM)	–	–	–	–	–	–
CS(=O)(=O)O.O=C(O)c1cn(C2CC2)c2c(F)c(N3CC4CCCNC4C3)c(F)cc2c1=O (centres unmarked) [Example 43A, 1-cyclopropyl-7-(2,8-diazabicyclo[4.3.0]non-8-yl)-6,8-difluoro-1,4-dihydro-4-oxo-3-quinolinecarboxylic acid mesylate]	–	–	–	–	–	–	–	–	–	–	readily soluble in water	–	–	–	–	–

Further lines, with some results ahead:

MIC (Proleus mirabilis 8223) [µg/mL]	MIC [1] [µg/mL]	MIC [2, 7] [µg/mL]	MIC [3, 8] [µg/mL]	MIC [4, 9] [µg/mL]	MIC (Escherichia coli Neumann) [µg/mL]	MIC (Proleus vulgaris 1017) [µg/mL]	MIC (Morganella morganii 932) [µg/mL]	MIC [5, 10] [µg/mL]	MIC [6, 11] [µg/mL]	solubility in water (Solubility in water)	Compound	MIC ([2]; Enterococcus faecalis, 27101, 20 h) [µg/mL]	MIC ([3]; Enterococcus faecalis, 9790, 20 h) [µg/mL]	MIC ([4]; Staphylococcus aureus, 133, 20 h) [µg/mL]	MIC ([5]; Staphylococcus aureus, FK422, 20 h) [µg/mL]	MIC ([6]; Staphylococcus aureus, 1756, 20 h) [µg/mL]
1	1	0.125	0.125	0.06	≤ 0.015	≤ 0.015	≤ 0.015	0.06	0.06	–	CO[C@@H]1CN(c2c(F)cc3c(=O)c(C(=O)O)cn(C4CC4)c3c2F)C[C@H]1N.Cl (relative stereo) [Example 1, 7-(trans-3-amino-4-methoxy-1-pyrrolidinyl)-1-cyclopropyl-6,8-difluoro-4-oxo-3-quinolinecarboxylic acid hydrochloride]	–	–	–	–	–
4	4	–	0.5	0.125	≤ 0.015	0.125	0.03	0.125	0.125	–	CO[C@@H]1CN(c2cc3c(cc2F)c(=O)c(C(=O)O)cn3C2CC2)C[C@H]1N.Cl (relative stereo) [Example 2, 7-(trans-3-Amino-4-methoxy-1-pyrrolidinyl)-1-cyclopropyl-6-fluoro-4-oxo-3-quinolinecarboxylic acid hydrochloride]	–	–	–	–	–
1	2	0.125	0.25	0.03	≤ 0.015	≤ 0.015	0.03	0.06	0.06	–	CO[C@H]1CN(c2c(F)cc3c(=O)c(C(=O)O)cn(C4CC4)c3c2F)C[C@H]1N.Cl (relative stereo) [Example 3, 7-(cis-3-Amino-4-methoxy-1-pyrrolidinyl)-1-cyclopropyl-6,8-difluoro-4-oxo-3-quinolinecarboxylic acid hydrochloride]	–	–	–	–	–
2	4	0.25	0.25	0.125	≤ 0.015	0.03	≤ 0.015	0.125	0.125	–	CO[C@H]1CN(c2cc3c(cc2F)c(=O)c(C(=O)O)cn3C2CC2)C[C@H]1N.Cl (relative stereo) [Example 5, 7-(cis-3-Amino-4-methoxy-1-pyrrolidinyl)-1-cyclopropyl-6-fluoro-1,4-dihydro-4-oxo-3-quinolinecarboxylic acid hydrochloride]	–	–	–	–	–
4 (≈ 10.4 µM)	4 (≈ 10.4 µM)	0.25 (≈ 0.649 µM)	0.5 (≈ 1.3 µM)	0.25 (≈ 0.649 µM)	0.06 (≈ 0.156 µM)	0.5 (≈ 1.3 µM)	0.25 (≈ 0.649 µM)	0.25 (≈ 0.649 µM)	0.25 (≈ 0.649 µM)	–	CN1CCCC2CN(c3cc4c(cc3F)c(=O)c(C(=O)O)cn4C3CC3)CC21 (centres unmarked) [Example 14, 1-cyclopropyl-6-fluoro-1,4-dihydro-7-(2-methyl-2,8-diazabicyclo[4.3.0]non-8-yl)-4-oxo-3-quinolinecarboxylic acid]	–	–	–	–	–
4 (≈ 11.2 µM)	32 (≈ 89.5 µM)	0.5 (≈ 1.4 µM)	0.5 (≈ 1.4 µM)	0.125 (≈ 0.35 µM)	0.06 (≈ 0.168 µM)	0.06 (≈ 0.168 µM)	0.06 (≈ 0.168 µM)	0.125 (≈ 0.35 µM)	0.125 (≈ 0.35 µM)	–	O=C(O)c1cn(C2CC2)c2cc(N3CC4CCNC4C3)c(F)cc2c1=O (centres unmarked) [Example 16, 1-cyclopropyl-7-(2,7-diazabicyclo[3.3.0]oct-7-yl)-6-fluoro-1,4-dihydro-4-oxo-3-quinolinecarboxylic acid]	–	–	–	–	–
8 (≈ 21.5 µM)	8 (≈ 21.5 µM)	1 (≈ 2.69 µM)	2 (≈ 5.38 µM)	0.5 (≈ 1.35 µM)	0.125 (≈ 0.337 µM)	0.5 (≈ 1.35 µM)	0.5 (≈ 1.35 µM)	0.5 (≈ 1.35 µM)	0.5 (≈ 1.35 µM)	–	CN1CCC2CN(c3cc4c(cc3F)c(=O)c(C(=O)O)cn4C3CC3)CC21 (centres unmarked) [Example 17, 1-cyclopropyl-6-fluoro-1,4-dihydro-7-(2-methyl-2,7-diazabicyclo[3.3.0]oct-7-yl)-4-oxo-3-quinolinecarboxylic acid]	–	–	–	–	–
